Measured values from patent US20040162467A1, “Non-invasive transudate extraction” (priority 2001, published 2004).

Columns and labels:
[1] = Other analytes: transdermal collection levels versus serum levels
[2] = Concentrations in transdermal exudate collected by different formats from sheep, versus serum
Protocol: (§1) Sodium lauryl sulfate (40%) and either a commercial ultrasound conductive gel (Aquasonic, Parker Lab., NJ 07004, USA) or a 10% ethanol gel (the two gels were alternated in use) are employed. These gels are designated SLS-UG and SLS-EG respectively herein. Collected SLS-UG and SLS-EG are assayed as for blood. Saliva was divided into two samples. The first sample is stored at −20° C. and assayed as for blood. The second sample is assayed at the time of experimentation using the apparatus and immunosensors described above.
Ten of these animals were used to develop the transdermal exudate collection technique. These 10 animals were penned as above, and a catheter inserted into the jugular vein using known techniques in the art. A mixture of sodium lauryl sulfate and either SLS-UG or SLS-EG was positioned onto the shaved area on the back of each animal. […] At the end of the hour, the remaining mix on the back was collected. The entire procedure was repeated three times. This mix was subject to assay (see below) for hormones and glucose content.
On the following day, one of the two gel mixes were rubbed on and, after 10 min, ultrasound (20 kHz, 10 W/cm^2, pulsed 5 s on/5 s off using an ITO Physiotherapy and rehabilitation unit, Tokyo 176-8605, Japan) applied for 1 min directly onto the mix. Ten minutes later, the mix was again collected and measured. This was then repeated with 2 min of the ultrasound application, and on a following day, the entire procedure repeated using the alternative gel mix on the shaved patch on the animal. Times greater than 2 min were not attempted due to potential risk of skin damage. Blood samples were collected at the time of ultrasound application and again at the time when the gel mix was also collected. The entire ultrasound procedure was then repeated on subsequent days with the addition of an application of a 9V electric field either side of the ultrasound head (in contact with skin).
On a separate day, in a further repeat of the above procedure; the collecting head (50) was positioned onto the ultrasound device. The ultrasound device was modified to ensure good coupling for use with the collecting head and delivery of needed parameters to the skin. The output of the device was reset to achieve the same energy and pulse delivery to the skin's surface as when the collecting head was not present, and the ultrasound device had been placed directly in contact with the gels (as described above). Three fluid flow rates into the collection chamber of the head were compared: 150, 300 and 600 μl/min. The effluent fluid was then assayed. On a final day, this was then repeated with the immunosensors positioned in the exit line from the chamber, with immunosensor measurement of the hormones made as has been described above.

[3] = Serum, transdermal and saliva samples from human subjects before, during and after exercise; details: for Saliva: 30-min saliva lag; for Exudate: transdermal
Protocol: as §1
(§2) Student t tests, ANOVA or Wilcoxon test for paired samples are made as appropriate. Statistical significance is taken at P≦0.05 level. For analysis across the exercise stress, data is grouped into pre, during and post exercise values as actual sample times relative to the exercise for transdermal and blood obtained values. For pre, during and post exercise grouping of saliva samples, a 20-min lag was allowed relative to blood and transdermal values in sheep and a 30-min lag in human subjects.
Ten human volunteers (males aged 19-23, body weights 85-103 kg) were seated at 09:30 h. During the experiment, they were held at a room temperature of 20-22° C. An initial 1 min burst of ultrasound, as for the sheep (above), was made on the volar surface of the forearm, following application of SLS-EG mix. Ten minutes later, transdermal (electrosonophoresis) collection began from this site on this forearm, simultaneous to a venepuncture blood collection being made from the other. A saliva collection was then made, followed by a second, third and fourth saliva collection 20, 30 and 40 min after the blood sample. These measurements were repeated three times over 3 h (i.e. a total of three blood and transdermal samples and 12 saliva samples). In between each sampling series, subjects were allowed to walk around, eat lightly and drink water. Following this collection, the five volunteers exercised at moderate intensities, for 40 min (heart rates maintained in the range of 130-160 bpm) on a rowing machine, stopping briefly at 10, 20 and 30 min to give blood, transdermal and saliva samples. The subjects gave another set of samples at 40 min upon completion of rowing, then warmed down lightly with stretching exercises for a further 10 min and gave a further saliva sample at the end of this time. Two more saliva samples were collected at 60 and 70 min after exercise started. At the end of this time, sampling was repeated as above, prior to exercise, for a further 3 h. The entire procedure was repeated twice a week for 3 weeks (a total of six times). The distance rowed (m) represented the total work rate during the exercise.

[4] = Serum, transdermal and saliva samples from sheep before, during and after exercise; details: for Saliva: 20-min saliva lag; for Exudate: transdermal
Protocol: as §1, §2
In the remaining 10 sheep, experimentation took place on three separate days, each 3 days apart. On days of experimentation, animals were penned as above and the jugular vein of the animal was catheterised. Animals were left to rest for 50 min and then a single ultrasound application applied for 1 min as above. […] A series of electrosonophoresis collections were made concurrently with blood collection from the jugular vein, every 5 min for a further 1 h. Saliva samples were collected on every second blood sample (i.e. every 10 min). At completion of this time, a human shepherd, intermittently for 30 min, then ran the animals around a paddock. During this 30 min, each animal was briefly restrained manually and sampled on all three parameters every 10 min (i.e. three samples repeated three times). At the end of this period, animals were repenned and rested for 10 min, and a further saliva collection was made. Following this saliva collection for a further 1-h period, collection as above, prior to exercise, was repeated. In this manner for each animal, in each session, 27 blood and transdermal samples and 16 saliva samples were collected.

[5] = Procalcitonin/TNF alpha and IL 6 (measure of bacterial sepsis): serum versus transdermal; assay type: in vivo
[6] = first group of subjects (no condition given)
[7] = second group: females pregnant and lactating
[8] = second group of subjects (no condition given)
[9] = sheep, SLS + 10% E + US 1 min + 9 V
[10] = sheep, SLS + 10% E + US 1 min + 9 V + Collection Head

Cn1c(=O)c2c(ncn2C)n(C)c1=O [Caffeine]
Serum levels [1, 6]: 1 to 5 mg/mL | Transdermal collection levels [1, 6]: 0.2 to 0.8 mg/mL | Serum levels ([1]; second group (loading)): 4 to 14 mg/mL (loading) | Transdermal collection levels ([1]; second group (loading)): 0.3 to 1.5 mg/mL

C[C@]12CC[C@@H]3c4ccc(O)cc4CC[C@H]3[C@@H]1CC[C@@H]2O [Estradiol, 17-β estradiol]
Recovery as % of serum levels ([2]; in vivo): 1% | Saliva ([3]; 0 min Exercise): 0.76 ± 0.38 ng/L | Exudate ([3]; 0 min Exercise): 1.53 ± 0.59 ng/L | Saliva ([3]; 10 min Exercise): 0.75 ± 0.51 ng/L | Exudate ([3]; 10 min Exercise): 1.47 ± 0.94 ng/L | Saliva ([3]; 20 min Exercise): 0.83 ± 0.39 ng/L | Exudate ([3]; 20 min Exercise): 1.74 ± 0.54 ng/L | Saliva ([3]; 30 min Exercise): 0.85 ± 0.22 ng/L | Exudate ([3]; 30 min Exercise): 2.14 ± 0.86 ng/L | Saliva ([3]; 40 min Exercise): 0.68 ± 0.26 ng/L | Exudate ([3]; 40 min Exercise): 1.53 ± 0.51 ng/L | Saliva ([3]; Postexercise): 0.45 ± 0. ng/l | Exudate ([3]; Postexercise): 1.11 ± 0.55 ng/L | Saliva ([3]; Preexercise): 0.71 ± 0.25 ng/L | Exudate ([3]; Preexercise): 1.23 ± 0.46 ng/L | Serum ([4]; 10 min Exercise): 1.5 ± 1.1 mg/L | Saliva ([4]; 10 min Exercise): 0.038 ± 0.011 mg/L | Exudate ([4]; 10 min Exercise): 0.14 ± 0.08 mg/L | Serum ([4]; 20 min Exercise): 1.3 ± 1.1 mg/L | Saliva ([4]; 20 min Exercise): 0.046 ± 0.009 mg/L | Exudate ([4]; 20 min Exercise): 0.12 ± 0.07 mg/L | Serum ([4]; 30 min Exercise): 1.5 ± 1.3 mg/L | Saliva ([4]; 30 min Exercise): 0.03 ± 0.012 mg/L | Exudate ([4]; 30 min Exercise): 0.14 ± 0.09 mg/L | Serum ([4]; Postexercise): 2.2 ± 1.1 mg/L | Saliva ([4]; Postexercise): 0.052 ± 0.021 mg/L | Exudate ([4]; Postexercise): 0.20 ± 0.06 mg/L | Serum ([4]; Preexercise): 1.4 ± 1.2 mg/L | Saliva ([4]; Preexercise): 0.05 ± 0.03 mg/L | Exudate ([4]; Preexercise): 0.12 ± 0.06 mg/L

TNF alpha
TNF alpha Trandermal ([5]; subject number 20): 0.5 to 12 ng/mL | Transdermal ([5]; subject number 20): 0.03 to 1.4 ng/mL | TNF alpha Trandermal ([5]; subject number 30): 0.1 to 0.5 ng/mL | Transdermal ([5]; subject number 30): 0.005 to 0.01 ng/mL

CN[C@@H](C)[C@@H](O)c1ccccc1 [Pseudoephedrine, reference compound]
Serum levels [1, 6]: 0.001 to 0.008 mg/mL | Transdermal collection levels [1, 6]: 0.0002 to 0.0008 mg/mL | Serum levels [1, 7]: 4-25 μg/ml females | Transdermal collection levels [1, 7]: 0.0004 to 0.0021 mg/mL

IL 6: measure of bacterial sepsis
Serum ([5]; subject number 20): 0.3 to 11.5 ng/mL | Transdermal ([5]; subject number 20): 0.04 to 1.2 ng/mL | Serum ([5]; subject number 30): 0.1 to 0.3 ng/mL | Transdermal ([5]; subject number 30): 0.03 to 0.05 ng/mL

CCO [Ethanol, ethanol]
Serum levels [1, 6]: 0.01 to 0.9 mg/mL | Transdermal collection levels [1, 6]: 0.02 to 0.08 mg/mL | Serum levels ([1]; second group (loading)): 0.4 to 1.4 mg/mL (loading) | Transdermal collection levels ([1]; second group (loading)): 0.05 to 0.11 mg/mL

CC(=O)[C@H]1CC[C@H]2[C@@H]3CCC4=CC(=O)CC[C@]4(C)[C@H]3CC[C@]12C [Progesterone]
Serum levels [1, 6]: 1e-06 to 1.2e-05 mg/mL | Transdermal collection levels [1, 6]: 2e-07 to 1.1e-06 mg/mL | Serum levels [1, 8]: 8e-06 to 2.5e-05 mg/mL | Transdermal collection levels [1, 8]: 5e-07 to 2.8e-06 mg/mL

Insulin: endogenous hormone analyte measured in serum and exudate
Serum ([2]; sheep, SLS + 10% E): 0.18 ± 0.09 ng/mL | Exudate ([2]; sheep, SLS + 10% E + US 1 min): 0.0004 ± 0.002 ng/mL | Serum ([2]; sheep, SLS + 10% E + US 1 min): 0.4 ± 0.15 ng/mL | Exudate [2, 9]: 0.0064 ± 0.0041 ng/mL | Serum [2, 9]: 0.21 ± 0.08 ng/mL | Exudate [2, 10]: 0.013 ± 0.006 ng/mL | Serum [2, 10]: 0.19 ± 0.11 ng/mL | Serum ([2]; sheep, SLS + UG): 0.2 ± 0.6 ng/mL | Recovery as % of serum levels ([2]; sheep, gel mix with addition of ultrasound application): 2% | Serum ([3]; 0 min Exercise): 13.1 ± 3.0 μIU/ml | Exudate ([3]; 10 min Exercise): 0.90 ± 0.28 μIU/ml | Serum ([3]; 20 min Exercise): 6.3 ± 3.8 μIU/ml | Serum ([3]; 30 min Exercise): 5.4 ± 4.1 μIU/ml | Exudate ([3]; 30 min Exercise): 0.46 ± 0.21 μIU/ml | Exudate ([3]; 40 min Exercise): 0.57 ± 0.33 μIU/ml | Serum ([3]; Postexercise): 14.1 ± 5.5 μIU/ml | Exudate ([3]; Postexercise): 1.15 ± 0.48 μIU/ml | Exudate ([3]; Preexercise): 1.35 ± 0.90 μIU/ml | Serum ([4]; 10 min Exercise): 2.1e-07 ± 7e-08 mg/L | Serum ([4]; 20 min Exercise): 1.2e-07 ± 5e-08 mg/L | Exudate ([4]; 20 min Exercise): 9e-09 ± 3e-09 mg/L | Exudate ([4]; 30 min Exercise): 8e-09 ± 4e-09 mg/L | Serum ([4]; Postexercise): 1.9e-07 ± 8e-08 mg/L | Exudate ([4]; Postexercise): 1.4e-08 ± 8e-09 mg/L | Exudate ([4]; Preexercise): 2.9e-08 ± 9e-09 mg/L

B1: Procalcitonin: measure of bacterial sepsis (protein, UniProt P01258 26-141, looked up)
pro-form: APFRSALESSPADPATLSEDEARLLLAALVQDYVQMKASELEQEQEREGSSLDSPRSKRCGNLSTCMLGTYTQDFNKFHTFPQTAIGVGAPGKKRDMSSDLERDHRPHVSMPQNAN
modifications: pro-form
notes: measure of bacterial sepsis
Serum ([5]; subject number 20): 0.5 to 15 ng/mL | Transdermal ([5]; subject number 20): 0.04 to 1.7 ng/mL | Serum ([5]; subject number 30): 0.1 to 0.5 ng/mL | Transdermal ([5]; subject number 30): 0.02 to 0.05 ng/mL

B2: Prolactin: endogenous hormone analyte (protein, UniProt P01236 29-227, looked up)
Prolactin: LPICPGGAARCQVTLRDLFDRAVVLSHYIHNLSSEMFSEFDKRYTHGRGFITKAINSCHTSSLATPEDKEQAQQMNQKDFLSLIVSILRSWNEPLYHLVTEVRGMQEAPEAILSKAVEIEEQTKRLLEGMELIVSQVHPETKENEIYPVWSGLPSLQMADEESRLSAYYNLLHCLRRDSHKIDNYLKLLKCRIIHNNNC
Serum levels [1, 6]: 1e-06 to 8e-06 mg/mL | Transdermal collection levels [1, 6]: 2e-08 to 8e-07 mg/mL | Serum levels [1, 7]: 4-100 ng/ml females | Transdermal collection levels [1, 7]: 4e-07 to 1e-05 mg/mL
